According to US4251655A, “Substituted N-iminomethylpiperidines” (McNeilab, Inc., priority 1979, dated 1981):
Structures can show the parent of a compound that is named as a salt. Where two headings read alike, the source gives them in different places.

Columns and labels:
gastric acid secretion [1] = test: Inhibition of gastric acid secretion (Total Acid Output) in rats; antisecretory activity; format: in vivo, Female Sprague-Dawley rats; conditions: for ED50: 1 h, read-out: ED50 (dose required to produce an average of 50% inhibition in Total Acid Output versus controls); for inhibition in vivo at 20 mg/kg: read-out: Percent Inhibition at 20 mg/kg id
Description: The compounds of the invention are useful for inhibition of gastric acid secretion as measured by the following test. Female Sprague-Dawley rats are fasted twenty-four hours before testing and are given water ad libidum while being kept in individual cages. On the day of testing, the rats are weighed and are selected so that the rats in each test weigh within a range of ± 20 grams.
Surgery is carried out under light ether anesthesia. As soon as the rat is anesthetized its teeth are removed and a mid-line incision is made on the abdomen about 11/2 inches in length and the stomach and duodenum are exposed. If at this point the stomach is filled with food or fecal material, the rat is discarded. If the condition of the stomach is acceptable, a purse string stitch is placed on the fundic portion of the stomach with a suture, taking care not to pierce any blood vessels in the area. A small nick is then made into the stomach in the center of the purse string, and a cannula, consisting of a small vinyl tube with a flange on one end, is put into the stomach, and the purse string stitch is closed tightly around the flange. The test compound is administered either intraduodonally (i.d.) immediately after surgery or orally (p.o.) one hour prior to surgery at doses generally ranging from about 0.25 to about 160 mg/kg in a volume of 0.5 ml/100 grams rat. Control rats receive the test vehicle, 0.5% aqueous methyl cellulose.
After the surgery and (in the case of i.d. administration) after administration of the test compound, the abdominal wall and skin are closed simultaneously with three or four 18 mm wound clips and a collecting tube is placed on the cannula. Each rat is then placed in a box in which a longitudinal slit has been made to allow the cannula to hand freely and to allow the rat to move about unencumbered. After the rat has been allowed to stabilize for thirty minutes, the collection tube on the cannula is discarded and replaced with a clean tube to receive the gastric juice. Collections are made at one hour. At the end of the study, the cannula is removed and the rat is sacrificed.
The sample of gastric contents collected is drained into a centrifuge tube and centrifuged to pack down the sediment. The volume is read and a 1 ml aliquot of the supernatant is put into a beaker containing 10 ml distilled water and is titrated to pH7 using 0.01 N sodium hydroxide. Results are determined for Volume, Titratable Acid and Total Acid Output, where Volume equals total ml of gastric juice minus sediment; Titratable Acid (meg/1) equals amount of 0.01 N sodium hydroxide needed to titrate the acid to pH7; and Total Acid Output equals Titratable Acid times Volume. Results are reported as the ED50 dose (mg/kg required to produce an average of 50% inhibition in Total Acid Output versus controls in all the animals tested for a particular compound) and as percent inhibition.
Following the test procedure previously described, the following compounds were tested for their antisecretory activity. The ED50 values for p.o. administration and the percent inhibition for i.d. administration at 20 mg/kg are tabulated below (R1 '=H except where noted): […]

gastric acid secretion [2] = test: as above; format: in vivo, Female Sprague-Dawley rats; conditions: rat; for ED50: ip, intraperitoneally (footnote ++), read-out: ED50 (compound administered intraperitoneally)
[3] = rat, po, one hour prior to surgery

Work on `CCCCCCCCN=CN1CCC(C(c2ccccc2)c2ccc(OC)cc2)CC1` (stereo not shown) [4-[(4-methoxyphenyl)phenylmethyl]-1-[(octylimino)methyl]piperidine] yielded an ED50 (gastric acid secretion [1]; [3]) of 16.9 mg/kg and an inhibition in vivo at 20 mg/kg (gastric acid secretion [1]; rat, id, 20 mg/kg) of 62%.

`CC(C)N=CN1CCC(C(c2ccccc2)c2ccccc2)CC1` was tested, and the ED50 (gastric acid secretion [1]; [3]) was 9.8 mg/kg and the inhibition in vivo at 20 mg/kg (gastric acid secretion [1]; rat, id, 20 mg/kg) was 96%.

`C#CCN=CN1CCC(C(c2ccccc2)c2ccccc2)CC1` showed an ED50 (gastric acid secretion [1]; [3]) of 6.07 mg/kg and an inhibition in vivo at 20 mg/kg (gastric acid secretion [1]; rat, id, 20 mg/kg) of 100%.

With `CCCCCCCCN=CN1CCC(C2c3ccccc3-c3ccccc32)CC1` [R1=9-fluorenyl; A=H; R2=H; R3=n-octyl] the ED50 (gastric acid secretion [1]; [3]) was 15.9 mg/kg and the inhibition in vivo at 20 mg/kg (gastric acid secretion [1]; rat, id, 20 mg/kg) was 48%.

With `N=CN1CCCCC1` [N-iminomethylpiperidine] the “inhibition of gastric acid secretion at doses four times or greater than those at which the subject compounds are active” value (gastric acid secretion [1]; doses four times or greater than active doses of subject compounds) was “does not inhibit gastric acid secretion”, the inhibition in vivo at 20 mg/kg (gastric acid secretion [1]; rat, id, 20 mg/kg) was 0% and the “inhibition of gastric acid secretion at a dose of 100 mg/kg p.o.” value (gastric acid secretion [1]; rat, p.o., 100 mg/kg) was “no inhibition whatsoever”. The “ED50 (mg/kg po): result in words” value (gastric acid secretion [1]; rat, po, at 80 (mg/kg)) was “Inactive” and the “inhibition of gastric acid secretion at 80 mg/kg i.d.” value (gastric acid secretion [2]; i.d., 80 mg/kg) was “no inhibition whatsoever”.

With `N=CN1CCC(C(c2ccccc2)c2ccc(Cl)cc2)CC1` (stereo not shown) the ED50 (gastric acid secretion [1]; [3]) was 2.32 mg/kg and the inhibition in vivo at 20 mg/kg (gastric acid secretion [1]; rat, id, 20 mg/kg) was 100%.

For `CCCCN=CN1CCC(C(c2ccccc2)c2ccccc2)CC1` [R1=diphenylmethyl; A=H; R2=H; R3=n-butyl], the ED50 (gastric acid secretion [1]; [3]) was 8.6 mg/kg and the inhibition in vivo at 20 mg/kg (gastric acid secretion [1]; rat, id, 20 mg/kg) was 100%.

`CCCCCCCCN=CN1CCC(=C(c2ccccc2)c2ccccc2)CC1` [R1,A=benzhydrylidene; R2=H; R3=n-octyl] gave an ED50 (gastric acid secretion [1]; [3]) of 0.625 mg/kg and an inhibition in vivo at 20 mg/kg (gastric acid secretion [1]; rat, id, 20 mg/kg) of 68.2%.

Compound `CCCCCCCN=CN1CCC(C(c2ccccc2)c2ccccc2)CC1` has an ED50 (gastric acid secretion [1]; [3]) of 11.6 mg/kg and an inhibition in vivo at 20 mg/kg (gastric acid secretion [1]; rat, id, 20 mg/kg) of 72%.

`N=CN1CCCC(C(c2ccccc2)c2ccccc2)C1` (stereo not shown) gave an inhibition in vivo at 20 mg/kg (gastric acid secretion [1]; rat, id, 20 mg/kg) of 68% and an ED50 (gastric acid secretion [2]) of 7 mg/kg.

`CCCCCCCCCCN=CN1CCC(C(c2ccccc2)c2ccccc2)CC1` [R1=diphenylmethyl; A=H; R2=H; R3=n-decyl] gave an ED50 (gastric acid secretion [1]; [3]) of 8.2 mg/kg and an inhibition in vivo at 20 mg/kg (gastric acid secretion [1]; rat, id, 20 mg/kg) of 79%.

Work on `C(=NCCc1ccccc1)N1CCC(C(c2ccccc2)c2ccccc2)CC1` yielded an ED50 (gastric acid secretion [1]; [3]) of 3.7 mg/kg and an inhibition in vivo at 20 mg/kg (gastric acid secretion [1]; rat, id, 20 mg/kg) of 100%.

`CCCCCCN=CN1CCC(C(c2ccccc2)c2ccccc2)CC1` [R1=diphenylmethyl; A=H; R2=H; R3=n-hexyl] gave an ED50 (gastric acid secretion [1]; [3]) of 8.7 mg/kg and an inhibition in vivo at 20 mg/kg (gastric acid secretion [1]; rat, id, 20 mg/kg) of 96%.

Compound `CCCCCCCCN=CN1CCC(C(c2ccccc2)c2ccc(C)cc2)CC1` (stereo not shown) has an inhibition in vivo at 20 mg/kg (gastric acid secretion [1]; rat, id, 20 mg/kg) of 73%.

For `Clc1ccc(CN=CN2CCC(C(c3ccccc3)c3ccccc3)CC2)cc1`, the ED50 (gastric acid secretion [1]; [3]) was 20.7 mg/kg and the inhibition in vivo at 20 mg/kg (gastric acid secretion [1]; rat, id, 20 mg/kg) was 94%.

Work on `CCN=CN1CCC(C(c2ccccc2)c2ccccc2)CC1` [R1=diphenylmethyl; A=H; R2=H; R3=ethyl, 4-(Diphenylmethyl)-1-N-ethyliminomethyl-piperidine oxalate hemihydrate] yielded an ED50 (gastric acid secretion [1]; [3]) of 4.3 mg/kg and an inhibition in vivo at 20 mg/kg (gastric acid secretion [1]; rat, id, 20 mg/kg) of 100%.

`CCCCCCCCCN=CN1CCC(C(c2ccccc2)c2ccccc2)CC1` [R1=diphenylmethyl; A=H; R2=H; R3=n-nonyl] was tested, and the ED50 (gastric acid secretion [1]; [3]) was 19.6 mg/kg and the inhibition in vivo at 20 mg/kg (gastric acid secretion [1]; rat, id, 20 mg/kg) was 93%.

For `COc1ccc(C(c2ccccc2)C2CCN(C=N)CC2)cc1` (stereo not shown), the ED50 (gastric acid secretion [1]; [3]) was 12.1 mg/kg and the inhibition in vivo at 20 mg/kg (gastric acid secretion [1]; rat, id, 20 mg/kg) was 100%.

`N=CN1CCC(c2ccccc2)CC1` [R1=phenyl; A=H; R2=H; R3=H] was tested, and the ED50 (gastric acid secretion [1]; [3]) was ~40 mg/kg and the inhibition in vivo at 20 mg/kg (gastric acid secretion [1]; rat, id, 20 mg/kg) was 77%.

For `Cl.N=CN1CCC(C(c2ccccc2)c2ccccc2)CC1.O` [R1=diphenylmethyl; A=H; R2=H; R3=H, 4-Diphenylmethyl-1-iminomethylpiperidine hydrochloride hydrate], the ED50 (gastric acid secretion [1]; [3]) was 0.7 mg/kg and the inhibition in vivo at 20 mg/kg (gastric acid secretion [1]; rat, id, 20 mg/kg) was 100%.

`CCCCCCCCN=CN1CCCC(C(c2ccccc2)c2ccccc2)C1` (stereo not shown) showed an ED50 (gastric acid secretion [1]; [3]) of 18.3 mg/kg and an inhibition in vivo at 20 mg/kg (gastric acid secretion [1]; rat, id, 20 mg/kg) of 92.2%.

Work on `CCCCCCCCN=CN1CCC(C(O)(c2ccccc2)c2ccccc2)CC1` yielded an ED50 (gastric acid secretion [2]) of 5 mg/kg.

Work on `C(=NCc1ccccc1)N1CCC(C(c2ccccc2)c2ccccc2)CC1` [R1=diphenylmethyl; A=H; R2=H; R3=benzyl] yielded an ED50 (gastric acid secretion [1]; [3]) of 3.3 mg/kg and an inhibition in vivo at 20 mg/kg (gastric acid secretion [1]; rat, id, 20 mg/kg) of 100%.

In the case of `CCC(=N)N1CCC(C(c2ccccc2)c2ccccc2)CC1` [R1=diphenylmethyl; A=H; R2=ethyl; R3=H], the ED50 (gastric acid secretion [1]; [3]) is reported as > 40 mg/kg and the inhibition in vivo at 20 mg/kg (gastric acid secretion [1]; rat, id, 20 mg/kg) is reported as 75%.

`CCCCCCCCCCCCN=CN1CCC(C(c2ccccc2)c2ccccc2)CC1.O=C(O)/C=C/C(=O)O` [4-(Diphenylmethyl)-1-N-(n-dodecyliminomethyl)piperidine fumarate] was tested, and the ED50 (gastric acid secretion [1]; [3]) was 53 mg/kg and the inhibition in vivo at 20 mg/kg (gastric acid secretion [1]; rat, id, 20 mg/kg) was 80%.

For `COc1ccc(CN=CN2CCC(C(c3ccccc3)c3ccccc3)CC2)cc1`, the ED50 (gastric acid secretion [1]; [3]) was < 40 mg/kg and the inhibition in vivo at 20 mg/kg (gastric acid secretion [1]; rat, id, 20 mg/kg) was 63%.

Work on `CCCCCCCCN=CN1CCC(C(c2ccccc2)c2ccccc2)CC1.O.O=C(O)/C=C/C(=O)O` [R1=diphenylmethyl; A=H; R2=H; R3=n-octyl, 4-(Diphenylmethyl)-1-[(octylimino)methyl]piperidine Fumarate Hydrate] yielded an ED50 (gastric acid secretion [1]; [3]) of 9.8 mg/kg and an inhibition in vivo at 20 mg/kg (gastric acid secretion [1]; rat, id, 20 mg/kg) of 64%.

Work on `C(=NCCCCc1ccccc1)N1CCC(C(c2ccccc2)c2ccccc2)CC1` [R1=diphenylmethyl; A=H; R2=H; R3=drawing 19] yielded an ED50 (gastric acid secretion [1]; [3]) of 8.1 mg/kg and an inhibition in vivo at 20 mg/kg (gastric acid secretion [1]; rat, id, 20 mg/kg) of 82%.

With `CCCCCCCCN=C(C)N1CCC(C(c2ccccc2)c2ccccc2)CC1.[O-][Cl+3]([O-])([O-])O` [4-(Diphenylmethyl)-1-[1-(octylimino)ethyl]-piperidine Monoperchlorate] the ED50 (gastric acid secretion [1]; Rattus norvegicus, po) was 14 mg/kg and the inhibition in vivo at 20 mg/kg (gastric acid secretion [1]; Rattus norvegicus) was 98%.

With `C(=NC12CC3CC(CC(C3)C1)C2)N1CCC(C(c2ccccc2)c2ccccc2)CC1` the ED50 (gastric acid secretion [1]; [3]) was 37 mg/kg, the inhibition in vivo at 20 mg/kg (gastric acid secretion [1]; rat, id, 20 mg/kg) was 0% and the “% inhibition at 80 mg/kg i.d.” value (gastric acid secretion [2]; i.d., 80 mg/kg (footnote)) was 52%.

Work on `CCCCCCCCN=CN1CCC(C(c2ccccc2)c2ccc(O)cc2)CC1` (stereo not shown) [4-[(4-hydroxyphenyl)phenylmethyl]-1-[(octylimino)methyl]piperidine] yielded an ED50 (gastric acid secretion [2]) of 2 mg/kg.

`N=CN1CCC(Cc2ccccc2)CC1` [R1=benzyl; A=H; R2=H; R3=H] showed an ED50 (gastric acid secretion [1]; [3]) of 114 mg/kg and an inhibition in vivo at 20 mg/kg (gastric acid secretion [1]; rat, id, 20 mg/kg) of 98%.

`CCCCCCCCC=CCCCCCCCCN=CN1CCC(C(c2ccccc2)c2ccccc2)CC1` gave an ED50 (gastric acid secretion [1]; [3]) of 66 mg/kg and an inhibition in vivo at 20 mg/kg (gastric acid secretion [1]; rat, id, 20 mg/kg) of 78.9%.

Compound `CC(=O)C1(c2ccccc2)CCN(C=N)CC1` [R1=phenyl; A=drawing 20; R2=H; R3=H] has an inhibition in vivo at 20 mg/kg (gastric acid secretion [1]; Rattus norvegicus) of 71%.

For `C=CCN=CN1CCC(C(c2ccccc2)c2ccccc2)CC1`, the ED50 (gastric acid secretion [1]; [3]) was 10.2 mg/kg and the inhibition in vivo at 20 mg/kg (gastric acid secretion [1]; rat, id, 20 mg/kg) was 100%.
